For 18 compounds, IC50 results are on record in patent publication US20250051327A1, “MALT-1 MODULATORS” (EXSCIENTIA AI LIMITED, priority 2020, published 2025).

For experiment [1], the system named is IL-2 secretion by human effector memory T cells (TEM). The experiment can be described thus: Effector memory T cells IL-2 release assay. The class given is cell-based. To be noted: T-cell; human CD4+ effector memory T cells, CD3/CD28 bead stimulation, 24 h; read-out: CD4TC IL2 IC50. In outline:
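Human CD4+ effector memory T cells from healthy-donor buffy coats were stimulated with anti-CD3/CD28 Dynabeads and exposed to 10 semi-log compound doses (0.1% DMSO) for 24 h at 37 °C. Supernatant IL-2 was measured by HTRF, and IC50 came from a 4-parameter logistic fit to maximal IL-2. Viability was checked by flow cytometry.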

In experiment [2] the target is Recombinant human MALT-1 (amino acids 340-824) (Homo sapiens (Human), UniProt Q9UDY8). The experiment in a line: MALT-1 inhibition assay (fluorogenic substrate Ac-LRSR-Rh110-DP). The class given is biochemical. To be noted: recombinant human MALT-1, substrate Ac-LRSR-Rh110-DP. In outline: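 Reactions were started with fluorogenic substrate Ac-LRSR-Rh110-DP (10 μM final) against 3 nM enzyme and kept dark at 25° C for 60 minutes. IC50 values came from 4-parameter logistic fits of percent inhibition calculated from relative fluorescence units.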
Sequence of Recombinant human MALT-1 (amino acids 340-824) (Q9UDY8 340-824): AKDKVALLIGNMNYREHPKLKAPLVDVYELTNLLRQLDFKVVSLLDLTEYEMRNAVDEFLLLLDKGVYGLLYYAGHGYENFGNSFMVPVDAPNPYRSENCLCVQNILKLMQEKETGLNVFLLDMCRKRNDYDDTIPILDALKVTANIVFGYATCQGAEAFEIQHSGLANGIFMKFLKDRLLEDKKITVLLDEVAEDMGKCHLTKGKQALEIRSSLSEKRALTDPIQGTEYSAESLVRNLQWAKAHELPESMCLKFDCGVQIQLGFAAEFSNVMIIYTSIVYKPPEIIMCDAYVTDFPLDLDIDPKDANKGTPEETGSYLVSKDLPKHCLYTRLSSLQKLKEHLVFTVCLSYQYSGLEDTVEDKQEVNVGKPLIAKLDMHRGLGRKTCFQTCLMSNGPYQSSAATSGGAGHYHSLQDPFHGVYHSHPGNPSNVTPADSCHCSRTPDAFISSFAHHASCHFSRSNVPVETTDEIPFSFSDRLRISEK

Turning to `CN(C(=O)[C@@H]1CCN(S(C)(=O)=O)C1)[C@@H](c1ccc(N2CCCc3c2cnc2cc(Cl)nn32)cc1)C(F)(F)F` (relative stereo) [CPD0073144, (3rel-R)-N-[(1S)-1-(4-{4-chloro-2,3,7,10-tetraazatricyclo[7.4.0.0^2,6]trideca-1(9),3,5,7-tetraen-10-yl}phenyl)-2,2,2-trifluoroethyl]-1-methanesulfonyl-N-methylpyrrolidine-3-carboxamide], the results for the IC50 in experiment [1] and in experiment [2] were 116 nM and 66 nM, respectively.
Consider `CN(C(=O)[C@H]1CC12CCS(=O)(=O)CC2)[C@@H](c1ccc(N2CCCc3c2cnc2cc(Cl)nn32)cc1)C(F)(F)F` (relative stereo) [CPD0073922, (1rel-S)-N-[(1S)-1-(4-{4-chloro-2,3,7,10-tetraazatricyclo[7.4.0.0^2,6]trideca-1(9),3,5,7-tetraen-10-yl}phenyl)-2,2,2-trifluoroethyl]-N-methyl-6,6-dioxo-6λ^6-thiaspiro[2.5]octane-1-carboxamide], for which the IC50 in experiment [1] amounted to 994 nM; in experiment [2], 173 nM.
As for `CN(C(=O)C1CC[S+]([O-])CC1)[C@@H](c1ccc(N2CCCc3c2cnc2cc(Cl)nn32)cc1)C(F)(F)F` (stereo partly drawn) [CPD0019481], the figures for the 50% inhibitory concentration (IC50) in experiment [1] and in experiment [2] were 86 nM and 76 nM, respectively.
Regarding `CN(C(=O)C1CC2(C1)CS(=O)(=O)C2)[C@@H](c1ccc(N2CCCc3c2cnc2cc(Cl)nn32)cc1)C(F)(F)F` [CPD0072937, N-[(1S)-1-(4-{4-chloro-2,3,7,10-tetraazatricyclo[7.4.0.0^2,6]trideca-1(9),3,5,7-tetraen-10-yl}phenyl)-2,2,2-trifluoroethyl]-N-methyl-2,2-dioxo-2λ^6-thiaspiro[3.3]heptane-6-carboxamide], the IC50 amounted to 93 nM in experiment [1] and 75 nM in experiment [2].
For `CN(C(=O)c1cncn1C)[C@@H](c1ccc(N2CCCc3c2cnc2cc(Cl)nn32)cc1)C(F)(F)F` [CPD0019344, N-[(1S)-1-(4-{4-chloro-2,3,7,10-tetraazatricyclo[7.4.0.0^2,6]trideca-1(9),3,5,7-tetraen-10-yl}phenyl)-2,2,2-trifluoroethyl]-N,1-dimethyl-1H-imidazole-5-carboxamide] the same measures were 295 nM and 213 nM.
For `C[C@@H]1CCN(c2ccc([C@H](N(C)C(=O)[C@H]3CC[S@@](=N)(=O)CC3)C(F)(F)F)cc2)c2cnc3cc(F)nn3c21` (relative stereo) [CPD0074556, (1rel r, 4rel r)1-imino-N-methyl-1-oxo-N-[(1S)-2,2,2-trifluoro-1-[4-[(13 rel R)-4-fluoro-13-methyl-2,3,7,10-tetrazatricyclo[7.4.0.0^2,6]trideca-1(9),3,5,7-tetraen-10-yl]phenyl]ethyl]thiane-4-carboxamide] the same measures were 168 nM and 62 nM.
On to `CN(C(=O)[C@@H]1C[C@H]2CC[C@@H](C1)S2(=O)=O)[C@@H](c1ccc(N2CCCc3c2cnc2cc(Cl)nn32)cc1)C(F)(F)F` [CPD0072938, (1R,3R,5S)-N-[(1S)-1-(4-{4-chloro-2,3,7,10-tetraazatricyclo[7.4.0.0^2,6]trideca-1(9),3,5,7-tetraen-10-yl}phenyl)-2,2,2-trifluoroethyl]-N-methyl-8,8-dioxo-8λ^6-thiabicyclo[3.2.1]octane-3-carboxamide], for which the IC50 in experiment [1] was 92 nM; in experiment [2], 90 nM.
For `CC(=O)N1CCC[C@H](C(=O)N(C)[C@@H](c2ccc(N3CCCc4c3cnc3cc(Cl)nn43)cc2)C(F)(F)F)C1` (relative stereo) [CPD0073500, (3rel-S)-1-acetyl-N-[(1S)-1-(4-{4-chloro-2,3,7,10-tetraazatricyclo[7.4.0.0^2,6]trideca-1(9),3,5,7-tetraen-10-yl}phenyl)-2,2,2-trifluoroethyl]-N-methylpiperidine-3-carboxamide] the same measures were 267 nM and 167 nM.
For `COCC(=O)N1CC[C@H](C(=O)N(C)[C@@H](c2ccc(N3CCCc4c3cnc3cc(Cl)nn43)cc2)C(F)(F)F)C1` (relative stereo) [CPD0075874, (3rel-R)-N-[(1S)-1-[4-(4-chloro-2,3,7,10-tetrazatricyclo[7.4.0.0^2,6]trideca-1(9),3,5,7-tetraen-10-yl)phenyl]-2,2,2-trifluoro-ethyl]-1-(2-methoxyacetyl)-N-methyl-pyrrolidine-3-carboxamide] the same measures were 230 nM and 95 nM.
Turning to `CN(C(=O)[C@H]1CCCS(=O)(=O)N1)[C@@H](c1ccc(N2CCCc3c2cnc2cc(Cl)nn32)cc1)C(F)(F)F` (relative stereo) [CPD0073560, (3rel-R)-N-[(1S)-1-(4-{4-chloro-2,3,7,10-tetraazatricyclo[7.4.0.0^2,6]trideca-1(9),3,5,7-tetraen-10-yl}phenyl)-2,2,2-trifluoroethyl]-N-methyl-1,1-dioxo-1λ^6,2-thiazinane-3-carboxamide], the IC50 was found to be 157 nM in experiment [1] and 92 nM in experiment [2].
Take `CN1C[C@@H](C(=O)N(C)[C@@H](c2ccc(N3CCCc4c3cnc3cc(Cl)nn43)cc2)C(F)(F)F)CC1=O` (relative stereo) [CPD0073557, (3rel-S)-N-[(1S)-1-(4-{4-chloro-2,3,7,10-tetraazatricyclo[7.4.0.0^2,6]trideca-1(9),3,5,7-tetraen-10-yl}phenyl)-2,2,2-trifluoroethyl]-N,1-dimethyl-5-oxopyrrolidine-3-carboxamide]: the IC50 in experiment [1] came out at 282 nM; in experiment [2] it was 121 nM.
On to `CN(C(=O)C1CN(C(=O)[C@@H]2CCO2)C1)[C@@H](c1ccc(N2CCCc3c2cnc2cc(Cl)nn32)cc1)C(F)(F)F` (relative stereo) [CPD0073563, N-[(1S)-1-(4-{4-chloro-2,3,7,10-tetraazatricyclo[7.4.0.0^2,6]trideca-1(9),3,5,7-tetraen-10-yl}phenyl)-2,2,2-trifluoroethyl]-N-methyl-1-[(2rel-S)-oxetane-2-carbonyl]azetidine-3-carboxamide], for which the IC50 in experiment [1] was 269 nM; in experiment [2], 62 nM.
For `CN(C(=O)[C@@H]1CCC(=O)N1C)[C@@H](c1ccc(N2CCCc3c2cnc2cc(Cl)nn32)cc1)C(F)(F)F` [CPD0073919, (2S)-N-[(1S)-1-(4-{4-chloro-2,3,7,10-tetraazatricyclo[7.4.0.0^2,6]trideca-1(9),3,5,7-tetraen-10-yl}phenyl)-2,2,2-trifluoroethyl]-N,1-dimethyl-5-oxopyrrolidine-2-carboxamide], the results for the IC50 in experiment [1] and in experiment [2] were 112 nM and 61 nM, respectively.
For the compound `CN(C(=O)[C@H]1CC[S@](=N)(=O)CC1)[C@@H](c1ccc(N2CCC3(CC3)c3c2cnc2cc(F)nn32)cc1)C(F)(F)F` (relative stereo) [CPD0072853, (1rel-r,4rel-r)-1-imino-N-methyl-1-oxo-N-[(1S)-2,2,2-trifluoro-1-(4-{4′-fluoro-2′,3′,7′,10′-tetraazaspiro[cyclopropane-1,13′-tricyclo[7.4.0.0^2,6]tridecane]-1′(9′),3′,5′,7′-tetraen-10′-yl}phenyl)ethyl]-1λ^6-thiane-4-carboxamide], the IC50 is 62 nM in experiment [1] and 23 nM in experiment [2].
For `CN1C[C@@H](C(=O)N(C)[C@@H](c2ccc(N3CCCc4c3cnc3cc(Cl)nn43)cc2)C(F)(F)F)CCC1=O` (relative stereo) [CPD0073196, (3rel-S)-N-[(1S)-1-(4-{4-chloro-2,3,7,10-tetraazatricyclo[7.4.0.0^2,6]trideca-1(9),3,5,7-tetraen-10-yl}phenyl)-2,2,2-trifluoroethyl]-N,1-dimethyl-6-oxopiperidine-3-carboxamide], in that order: 122 nM and 80 nM.
For `CN(C(=O)c1nn(C)cc1Cl)[C@@H](c1ccc(N2CCCc3c2cnc2cc(Cl)nn32)cc1)C(F)(F)F` [CPD0019352, 4-chloro-N-[(1S)-1-(4-{4-chloro-2,3,7,10-tetraazatricyclo[7.4.0.0^2,6]trideca-1(9),3,5,7-tetraen-10-yl}phenyl)-2,2,2-trifluoroethyl]-N,1-dimethyl-1H-pyrazole-3-carboxamide] the same measures were 417 nM and 196 nM.
For `COC[C@@]1(C)CCN(c2ccc([C@H](N(C)C(=O)[C@H]3CC[S@](=N)(=O)CC3)C(F)(F)F)cc2)c2cnc3cc(Cl)nn3c21` (relative stereo) [CPD0073134, (1rel-r,4rel-r)-N-[(1S)-1-[4-[(13rel-S)-4-chloro-13-(methoxymethyl)-13-methyl-2,3,7,10-tetrazatricyclo[7.4.0.0^2,6]trideca-1(9),3,5,7-tetraen-10-yl]phenyl]-2,2,2-trifluoro-ethyl]-1-imino-N-methyl-1-oxo-1λ^6-thiane-4-carboxamide], in that order: 57 nM and 85 nM.
`COC[C@@]1(C)CCN(c2ccc([C@H](N(C)C(=O)[C@H]3CC[S@@+]([O-])CC3)C(F)(F)F)cc2)c2cnc3cc(Cl)nn3c21` (relative stereo) [CPD0073137, (1rel-s,4rel-s)-N-[(1S)-1-[4-[(13rel-S)-4-chloro-13-(methoxymethyl)-13-methyl-2,3,7,10-tetrazatricyclo[7.4.0.0^2,6]trideca-1(9),3,5,7-tetraen-10-yl]phenyl]-2,2,2-trifluoro-ethyl]-N-methyl-1-oxo-1λ^4-thiane-4-carboxamide]: the IC50 in experiment [1] came to 45 nM; in experiment [2] it was 90 nM.

As a reminder, the IC50 is the concentration needed to halve the response being measured.
